Laboratory results taken from patent US8729269B2, “Substituted piperidino phenyloxazolidinones having antimicrobial activity with improved in vivo efficacy” (Wockhardt Limited, priority 2003, dated 2014).
Values after ≈ are worked out from the molar mass of the structure shown.

What was measured:
[1] = system: Methicilin resistant Staphylococcus aureus 32 (MRSA 32); experiment: Minimum Inhibitory Concentration (MIC) determination, agar dilution; type: cell-based; conditions: Mueller Hinton agar, 24 hrs at 35° C.
Protocol: (§1) Overnight grown cultures of Methicilin resistant Staphylococcus aureus 32 (MRSA 32), Methicilin resistant Staphylococcus epidermidis 118 (MRSE 118), Vancomycin resistant enterococci 303 (VRE 303) in Tryptic Soya broth were diluted in Mueller Hinton Broth to give optical density matching with MacFarland tube 0.5 standard. Cultures were further diluted 1:10 in Mueller Hinton broth. Using Denley's multipoint inoculator, 10^4 cells were deposited on Mueller Hinton agar (Difco) containing range of 2 fold dilutions of test compounds. These plates were incubated for 24 hrs at 35° C. and MIC results recorded. MIC is defined as minimum drug concentration that inhibits test organisms. For determining MIC of test compounds against Streptococcus pneumoniae 49619 (SPN 49619) and Streptococcus pyogenes 801 (SPY 801), Mueller Hinton agar containing 5% sheep blood was employed.

[2] = system: Methicilin resistant Staphylococcus epidermidis 118 (MRSE 118); experiment: as above; type: cell-based; conditions: Mueller Hinton agar, 24 hrs at 35° C.
Protocol: as §1

[3] = system: Vancomycin resistant enterococci 303 (VRE 303); experiment: as above; type: cell-based; conditions: Enterococcus, Mueller Hinton agar, 24 hrs at 35° C.
Protocol: as §1

[4] = system: Streptococcus pneumoniae 49619 (SPN 49619); experiment: Minimum Inhibitory Concentration (MIC) determination, agar with 5% sheep blood; type: cell-based; conditions: Mueller Hinton agar containing 5% sheep blood
Protocol: as §1

[5] = system: Streptococcus pyogenes 801 (SPY 801); experiment: as above; type: cell-based; conditions: Mueller Hinton agar containing 5% sheep blood
Protocol: as §1

[6] = system: methicillin resistant Staphylococcus aureus strain MRSA 32; experiment: Murine Assay Procedure (in vivo efficacy, MRSA 32 infection); conditions: swiss mice infected intraperitoneally with MRSA 32, oral gavage 1 h after infection, repeat dose 3 hrs later, percentage survival on Day 7
Protocol: Oxazolidinone new chemical entities (NCEs) were evaluated for their in vivo efficacy in a murine infection caused by multi-drug resistant, methicillin resistant Staphylococcus aureus strain, referred to as MRSA 32, a clinical isolate obtained from a hospitalized patient. The procedure used for the murine assay is as follows:
Four weeks old swiss mice of 18-22 gm body weight were infected with MRSA 32 strain suspended in 5% Hog gastric mucin. The infecting dose of bacteria was set at 1-2×10^8 CFU/animal. The infecting dose was administered in 0.5 ml volume injected into peritonial cavity of mice. The treatment with oxazolidinone NCEs was started one hour after infection by administering 100-200 μl of the suspensions of oxazolidinone compounds in 5% Tween 80 by oral gavage. A repeat dose was similarly administered 3 hrs later. Each oxazolidinone NCE was tested at 2-3 different dosages in the range of 2.5 mg/kg to 20 mg/kg. In each dose group 6 mice were included. As an infection control group 12 mice were infected with MRSA 32 strain without giving any treatment. For compounds affording protection of MRSA infected mice, ED50 dosages were calculated on the basis of percentage survival on Day 7 after infection.

SMILES | MIC [1] [µg/mL] | MIC [2] [µg/mL] | MIC [3] [µg/mL] | MIC [4] [µg/mL] | MIC [5] [µg/mL] | ED50 [6] [mg/kg]
CC(=O)NC[C@H]1CN(c2ccc(N3CCC(O)(CC#N)CC3)c(F)c2)C(=O)O1 [Example 21, (S)—N-{3-[4-(4-Cyanomethyl-4-hydroxypiperidin-1-yl)-3-fluorophenyl]-2-oxo-oxazolidin-5-ylmethyl}-acetamide] | 4 (≈ 10.2 µM) | 1 (≈ 2.56 µM) | 4 (≈ 10.2 µM) | 1 (≈ 2.56 µM) | 1 (≈ 2.56 µM) | 2.5
CC(=O)NC[C@H]1CN(c2ccc(N3CCC(F)(CNC(C)=O)CC3)c(F)c2)C(=O)O1 [Example 6, (S)—N-{3-[4-(4-Fluoro-4-(N-acetylamino)-methylpiperidin-1-yl)-3-fluorophenyl]-2-oxo-oxazolidin-5-ylmethyl}-acetamide] | 8 (≈ 18.8 µM) | 2 (≈ 4.71 µM) | 8 (≈ 18.8 µM) | 2 (≈ 4.71 µM) | 2 (≈ 4.71 µM) | 10
CC(=O)NC[C@H]1CN(c2ccc(N3CCC4(CC3)CC4C#N)c(F)c2)C(=O)O1 (mixture of isomers) [Example 97, (1RS,5S)—N-{3-[4-(1-cyano-6-aza-spiro[2.5]oct-6-yl)-3-fluorophenyl]-2-oxo-oxazolidin-5-ylmethyl}-acetamide] | 4 | 1 | 2 | 2 | 2 | 5
CC(=O)NC[C@H]1CN(c2ccc(N3CCC(F)(CI)CC3)c(F)c2)C(=O)O1 [Example 15, (S)—N-{3-[4-(4-Fluoro-4-iodomethylpiperidin-1-yl)-3-fluorophenyl]-2-oxo-oxazolidin-5-ylmethyl}-acetamide] | 1 (≈ 2.03 µM) | 1 (≈ 2.03 µM) | 2 (≈ 4.05 µM) | 1 (≈ 2.03 µM) | 1 (≈ 2.03 µM) | 10
CC(=O)NC[C@H]1CN(c2cc(F)c(N3CCC(O)(CN=[N+]=[N-])CC3)c(F)c2)C(=O)O1 [Example 186, (S)—N-{3-[4-(4-Azidomethyl-4-hydroxypiperidin-1-yl)-3,5-difluorophenyl]-2-oxo-oxazolidin-5-ylmethyl}-acetamide] | 2 (≈ 4.71 µM) | 1 (≈ 2.36 µM) | 2 (≈ 4.71 µM) | 1 (≈ 2.36 µM) | 1 (≈ 2.36 µM) | 5
CC(=O)NC[C@H]1CN(c2ccc(N3CCC(O)(C#N)CC3)c(F)c2)C(=O)O1 [Example 19, (S)—N-{3-[4-(4-Cyano-4-hydroxypiperidin-1-yl)-3-fluorophenyl]-2-oxo-oxazolidin-5-ylmethyl}-acetamide] | 4 (≈ 10.6 µM) | 0.5 (≈ 1.33 µM) | 4 (≈ 10.6 µM) | 4 (≈ 10.6 µM) | 8 (≈ 21.3 µM) | 5
CC(=O)NC[C@H]1CN(c2ccc(N3CCC4(OCCO4)C(F)C3)c(F)c2)C(=O)O1 (stereo partly drawn) [Example 133, (S)—N-{3-[4-(1,4-dioxa-6-fluoro-8-aza-spiro[4.5]dec-8-yl)-3-fluorophenyl]-2-oxo-oxazolidin-5-ylmethyl}-acetamide] | 4 (≈ 9.72 µM) | 2 (≈ 4.86 µM) | 4 (≈ 9.72 µM) | 2 (≈ 4.86 µM) | 2 (≈ 4.86 µM) | 5
CS(=O)(=O)OC[C@H]1CN(c2ccc(N3CCC(O)CC3)c(F)c2)C(=O)O1 [Example 172, (R)—N-{3-[4-(4-hydroxy-piperidin-1-yl)-3-fluorophenyl]-2-oxo-oxazolidin-5-ylmethyl}-methanesulfonate] | 8 (≈ 20.6 µM) | 8 (≈ 20.6 µM) | 16 (≈ 41.2 µM) | > 8 | > 8 | 10
C=CCC1(O)CCN(c2ccc(N3C[C@H](COS(C)(=O)=O)OC3=O)cc2F)CC1 [Example 41] | 8 (≈ 18.7 µM) | 8 (≈ 18.7 µM) | 8 (≈ 18.7 µM) | 16 (≈ 37.3 µM) | 16 (≈ 37.3 µM) | 10
CC(=O)NC[C@H]1CN(c2ccc(N3CCC4(CC3)COCO4)c(F)c2)C(=O)O1 [Example 125, (S)—N-{3-[4-(1,3-dioxa-8-aza-spiro[4.5]dec-8-yl)-3-fluorophenyl]-2-oxo-oxazolidin-5-ylmethyl}-acetamide] | 4 (≈ 10.2 µM) | 2 (≈ 5.08 µM) | 4 (≈ 10.2 µM) | 2 (≈ 5.08 µM) | 2 (≈ 5.08 µM) | 10
CS(=O)(=O)NCC1CN(c2ccc(N3CCC(O)(CN=[N+]=[N-])CC3)c(F)c2)C(=O)O1 (stereo in doubt) [Example 40, (S)—N-{3-[4-(4-Azidomethyl-4-hydroxypiperidin-1-yl)-3-fluorophenyl]-2-oxo-oxazolidin-5-ylmethyl}-methanesulfonamide] | 8 (≈ 18.1 µM) | 8 (≈ 18.1 µM) | > 16 | > 8 | > 8 | 10
CC(=O)NC[C@H]1CN(c2ccc(N3CCC4(CC3)COCCO4)c(F)c2)C(=O)O1 [Example 160, (S)—N-{3-[4-(1,4-dioxa-9-aza-spiro[5.5]undec-9-yl)-3-fluorophenyl]-2-oxo-oxazolidin-5-ylmethyl}-acetamide] | 4 (≈ 9.82 µM) | 1 (≈ 2.45 µM) | 8 (≈ 19.6 µM) | 4 (≈ 9.82 µM) | 4 (≈ 9.82 µM) | 10
CC(=O)NC[C@H]1CN(c2ccc(N3CCC4(CC3)C[C@H]4C#N)c(F)c2)C(=O)O1 [Example 98, (1R,5S)—N-{3-[4-(1-cyano-6-aza-spiro[2.5]oct-6-yl)-3-fluorophenyl]-2-oxo-oxazolidin-5-ylmethyl}-acetamide] | 2 (≈ 5.18 µM) | 1 (≈ 2.59 µM) | 2 (≈ 5.18 µM) | 1 (≈ 2.59 µM) | 1 (≈ 2.59 µM) | 5
CC(=O)NC[C@H]1CN(c2ccc(N3CCC4(CC3)SCCN4C)c(F)c2)C(=O)O1 [Example 113, (S)—N-{3-[4-(8-aza-1-thia-4-(N-methyl)-spiro[4.5]dec-8-yl)-3-fluorophenyl]-2-oxo-oxazolidin-5-ylmethyl}-acetamide] | 4 (≈ 9.47 µM) | 1 (≈ 2.37 µM) | 4 (≈ 9.47 µM) | 2 (≈ 4.73 µM) | 2 (≈ 4.73 µM) | 10
CS(=O)(=O)OC[C@H]1CN(c2cc(F)c(N3CCC4(CC3)OCCO4)c(F)c2)C(=O)O1 [Example 146, (R)—N-{3-[4-(1,4-dioxa-8-aza-spiro[4.5]dec-8-yl)-3,5-difluorophenyl]-2-oxo-oxazolidin-5-ylmethyl}-methanesulfonate] | 4 (≈ 8.92 µM) | 2 (≈ 4.46 µM) | 4 (≈ 8.92 µM) | 4 (≈ 8.92 µM) | 4 (≈ 8.92 µM) | 2.5
CC(=O)NC[C@H]1CN(c2ccc(N3CCC(F)(COS(C)(=O)=O)CC3)c(F)c2)C(=O)O1 [Example 12, (S)—N-{3-[4-(4-Fluoro-4-methanesulfonyloxymethylpiperidin-1-yl)-3-fluorophenyl]-2-oxo-oxazolidin-5-ylmethyl}-acetamide] | 1 (≈ 2.17 µM) | 0.5 (≈ 1.08 µM) | 2 (≈ 4.33 µM) | 0.25 (≈ 0.542 µM) | 0.25 (≈ 0.542 µM) | 2.5
COCC1(O)CCN(c2ccc(N3C[C@H](CNC(C)=O)OC3=O)cc2F)CC1 [Example 33, (S)—N-{3-[4-(4-Methoxymethyl-4-hydroxypiperidin-1-yl)-3-fluorophenyl]-2-oxo-oxazolidin-5-ylmethyl}-acetamide] | 8 (≈ 20.2 µM) | 4 (≈ 10.1 µM) | 4 (≈ 10.1 µM) | 2 (≈ 5.06 µM) | 2 (≈ 5.06 µM) | 10
CC(=O)NC[C@H]1CN(c2ccc(N3CCC(F)(CO)CC3)c(F)c2)C(=O)O1 [Example 9, (S)—N-{3-[4-(4-Fluoro-4-hydroxymethylpiperidin-1-yl)-3-fluorophenyl]-2-oxo-oxazolidin-5-ylmethyl}-acetamide] | 2 (≈ 5.22 µM) | 0.5 (≈ 1.3 µM) | 4 (≈ 10.4 µM) | 2 (≈ 5.22 µM) | 2 (≈ 5.22 µM) | 5
